{"source": "patent US20240279641A1", "about": "“Structural Neuroplasticity Enhancer Screen” (Northwestern University, priority 2021, published 2024)", "assay_type_in_all_cases": "cell-based, mouse", "key": {"[1]": {"test_system": "primary hippocampal and cortical neurons", "experiment": "SARE-ArcMin-luciferase-PSD95-mVenus luciferase assay in primary neuronal cultures, 96-well", "settings": "hippocampal vs cortical primary cultures, 96-well plate", "procedure": "(§1) Animals were handled according to protocols approved by the Northwestern University Animal Care and Use Committee. Cortical neurons were harvested from mouse embryos euthanized at embryonic day 18 and plated in poly-D-lysine coated plates. Embryonic brains were dissected in ice-cold dissection media (Hank's balance salt solution HBSS, 2% penicillin-streptomycin, 20 mM HEPES). Meninges were removed from each brain and cortices were dissected out. The cortices were chopped into small pieces using a microscissors and pooled in 5 mL dissection media containing 0.25% trypsin and 0.1% DNasel and trypsinised at 37° ° C. for 20-25 min. Cortices were washed twice with warm dissection media, and once with warm plating medium (MEM, supplemented with 10% heat-inactivated horse serum, 0.6% glucose, 1 mM Na pyruvate, 1% Glutamax, 1% penicillin-streptomycin) for 5 min each. Tissues were titurated in 3 mL fresh plating medium with unpolished and, subsequently, polished glass Pasteur pipettes. 1 k, 80 k, 150 k, 2500 k cells were seeded in 384-well, 12-well, 6-well plates, 10-cm dishes, respectively. […]\nLuciferase substrate systems were prepared according to the Manufacturer's instructions. […] Plates were read by Biotek Syngery Neo2 plate reader. […]"}, "[2]": {"test_system": "primary cortical neurons", "experiment": "Western blot of biotinylation by TurboID constructs in cortical neurons", "settings": "55 mM KCl", "procedure": "as §1, with “pipettes.” for “pipettes. 1 k, 80 k, 150 k, 2500 k cells were seeded in 384-well, 12-well, 6-well plates, 10-cm dishes, respectively.”\nCell pellets were sonicated in NP40 lysis buffer (1% NP40, 150 mM NaCl, 50 mM Tris, pH 8, 1× Halt). […] Total protein was detected using REVERT 700 according to the manufacturer instructions. […] All quantification was performed using LI-COR Image Studio version 5.2. For densitometry quantification, band signals were normalized to total protein stain in each blot using the equation below."}, "[3]": {"test_system": "cFos", "experiment": "Western blot analysis of forskolin stimulation in cell culture: cFos", "settings": "1 μM forskolin vs 0.1% DMSO, normalized band signal, n=3, adj. p=0.0462", "procedure": "(§2) For initial 384-well plate set up and western blot validation, forskolin (from 25 mM DMSO stock) was used as a positive control and DMSO was used as a vehicle control. For example, at 25 and 2.5 μM forskolin (0.1%, 0.01% DMSO), the corresponding vehicle control was 0.1% and 0.01% DMSO, respectively. Media was changed to NB-27 containing pharmacological agents (concentration specified in figure legends) and processed as described in each section 16 hrs after treatment.\n(§3) Cell pellets were sonicated in NP40 lysis buffer (1% NP40, 150 mM NaCl, 50 mM Tris, pH 8, 1× Halt). Proteins were separated in 12% Tris-glycine gels and transferred to nitrocellulose membrane (Cat. No. 926-31090, LI-COR, NE, USA). Blots were briefly rinsed with TBS. Total protein was detected using REVERT 700 according to the manufacturer instructions. For detecting individual proteins, unless specified, blots were blocked with 5% milk-containing TBST (0.1% Tween20) for 1 hr at RT. Primary antibodies were added in the same blocking buffer for overnight incubation (1:1,000 rabbit RFP, Rockland, Cat. No., 600-401-379-RTU, and 1:1,000 mouse Psd95 Biolegend Cat. Nol, 810401)). […] All quantification was performed using LI-COR Image Studio version 5.2. For densitometry quantification, band signals were normalized to total protein stain in each blot using the equation below. […]"}, "[4]": {"test_system": "NanoLuc", "experiment": "Western blot analysis of forskolin stimulation in cell culture: NanoLuc (RFP)", "settings": "1 μM forskolin vs 0.1% DMSO, normalized band signal, n=3, adj. p=0.324", "procedure": "as §2, §3"}, "[5]": {"test_system": "Psd95", "experiment": "Western blot analysis of forskolin stimulation in cell culture: Psd95", "settings": "1 μM forskolin vs 0.1% DMSO, normalized band signal, n=3, adj. p=1", "procedure": "as §2, §3"}}, "data": [{"compound": "COc1ccc(-c2ccc(=N)n(CCCC(=O)O)n2)cc1", "note": "[Gabazine]", "values": [{"measurement": "dose-response of luciferase activity, construct (1)", "setting": "[1]", "result": "dose-response is cell-type specific"}]}, {"compound": "[Cl-].[K+]", "note": "[KCl]", "values": [{"measurement": "biotin-labelling after induction of neuronal activity", "setting": "[2]", "result": "enhanced biotin-labelling"}]}, {"compound": "CNC1(c2ccccc2Cl)CCCCC1=O", "note": "(stereo not drawn) [Ketamine]", "values": [{"measurement": "dose-response of luciferase activity, construct (1)", "setting": "[1]", "result": "dose-response is cell-type specific"}]}, {"compound": "C=C[C@@]1(C)CC(=O)[C@]2(O)[C@@]3(C)[C@@H](O)CCC(C)(C)[C@@H]3[C@H](O)[C@H](OC(C)=O)[C@@]2(C)O1", "note": "[forskolin]", "values": [{"measurement": "cFos expression, FSK−DMSO", "setting": "[3]", "result": "3.232±0.769"}, {"measurement": "NanoLuc expression, FSK−DMSO", "setting": "[4]", "result": "0.583±0.267"}, {"measurement": "Psd95 expression, FSK−DMSO", "setting": "[5]", "result": "−0.048±0.1131"}]}]}
